The conditions of data set [1]: cited from earlier work.
The conditions of data set [2]: neutral pH; cited from earlier work.
Data set [3] in a line: solubility study of midazolam base in aqueous solution (pH-dependent). Particulars: midazolam 2 mg/mL in a solution of 0.9% NaCl. Type of data set: physicochemical. On the procedure: The solubility of midazolam is less than 0.1 mg/mL at neutral pH and it increases considerably in acidic media. A solubility study has been performed to evaluate the use of midazolam base in the proposed formulation. Since the solubility of midazolam is pH-dependent, the purpose of this study was to evaluate the pH value at which midazolam becomes soluble in aqueous solution. Midazolam at a concentration of 2 mg/mL is soluble in a solution of 0.9% NaCl when the pH reaches a value of about 3.2 pH. The solubility increases at lower pHs. The desired pH of the formulation is about from about 2.5 to about 3.5, preferably 2.8 to 3.2 and more preferably about pH 3. Sufficient acid is added to the solution to achieve the desired pH. Any pharmaceutically acid may be used. Preferably the acid is a pharmaceutically acceptable mineral acid, most preferably hydrochloric acid. If necessary a pharmaceutically acceptable base may be used to raise the pH if needed. The preferred bases are pharmaceutically acceptable inorganic bases such as sodium hydroxide and potassium hydroxide. Sodium hydroxide is the preferred base.

For `Cc1ncc2n1-c1ccc(Cl)cc1C(c1ccccc1F)=NC2` [Midazolam], the storage of bag entry in data set [1] (isotonic saline IV bag, room temperature) is given as “can be stored overnight at room temperature”. Further, the useful life in data set [1] (midazolam in lactate Ringer's solution in IV bag) is 4 h. Moreover, the solubility of midazolam entry in data set [2] is reported as “less than 0.1 mg/mL”. Moreover, in data set [3], the “pH value at which midazolam becomes soluble” value is “about 3.2 pH”.

(Values after US10966990B2, “Midazolam in flexible bags” (InfoRLife SA, priority 2018, dated 2021).)
